Reference: the OPERA property sets (Mansouri et al. 2018)
Converted amounts (≈) assume the structure as drawn.

Details: not given

First: CCCOC(=O)Nc1ccccc1
Second: CCCCOC(=O)Nc1ccccc1
The logP of the first is lower: 2.8 for the first, 3.3 for the second.

Going from `O=C(Nc1ccccc1)NC1CCCC1` to `CNC(=O)Nc1cccc(Cl)c1`, the logP falls from 2.65 to 2.18.

First: Cc1cc(NC(N)=O)ccc1F
Second: COc1ccc(NC(N)=O)cc1Cl
The logP of the first is higher: 1.59 for the first, 1.37 for the second.

First: NC(=O)Nc1cccc(C(F)(F)F)c1
Second: COc1cccc(NC(=O)N(C)C)c1
The logP of the first is higher: 2.31 for the first, 1.73 for the second.

Going from `O=[N+]([O-])c1ccc(Br)c(Cl)c1` to `CNC(=O)Nc1ccc(C)c(Cl)c1`, the logP falls from 3.25 to 2.61.

Compared with `CON(C)C(=O)Nc1ccc(Br)cc1`, `COc1ccc(NC(=O)N(C)C)cc1` is lower in logP: 2.38 for the first, 0.83 for the second.

For `CNC(=O)Nc1ccc(Cl)c(Cl)c1`, the logP was 2.94.

Same assay, conditions: 25 °C

First: CC(=O)Nc1ccccc1Cl
Second: CC(=O)Nc1cccc(C)c1
The solubility of the first is 4.9-fold higher: 39.8 mM (≈ 6750 µg/mL) for the first, 8.11 mM (≈ 1210 µg/mL) for the second.
